Drawing on PubChem BioAssay AID192 (DTP/NCI, 2004), this text covers T/C for 19 molecules.

Several values for one entry are separate records, joined by “and”; a condition that tells them apart may be missing. Identical values can stand only once. Inconclusive results and toxic doses are left out.

The subject of the assay is BDF1 mice, B16 melanoma ip, median survival T/C. Kind of assay: NCI In Vivo Anticancer Drug Screen. Data for tumor model B16 Melanoma (intraperitoneal) in B6D2F1 (BDF1) mice. As to conditions: endpoint: median survival time, higher = longer survival. The method, boiled down:
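Antitumor activity is assessed in mice bearing a transplanted tumor, with survival or tumor size compared against vehicle-dosed controls and expressed as T/C.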

Where [1] appears, read: dose: 100.0 mg/kg/injection, schedule: Q01DX009 (ip), vehicle: Klucel (hydroxypropylcellulose) (HPC).
The mark [2] stands for this setting: dose: 200.0 mg/kg/injection, schedule: Q01DX009 (ip), vehicle: Klucel (hydroxypropylcellulose) (HPC).
Setting [3] is: dose: 400.0 mg/kg/injection, schedule: Q01DX009 (ip), vehicle: Klucel (hydroxypropylcellulose) (HPC).
The mark [4] stands for this setting: dose: 6.25 mg/kg/injection, schedule: Q01DX009 (ip), vehicle: saline with Tween-80.
The mark [5] stands for this setting: dose: 12.5 mg/kg/injection, schedule: Q01DX009 (ip), vehicle: saline with Tween-80.
Where [6] appears, read: dose: 25.0 mg/kg/injection, schedule: Q01DX009 (ip), vehicle: saline with Tween-80.
The mark [7] stands for this setting: dose: 12.5 mg/kg/injection, schedule: Q01DX009 (ip), vehicle: saline.
Setting [8] is: dose: 25.0 mg/kg/injection, schedule: Q01DX009 (ip), vehicle: saline.
[9] abbreviates: dose: 50.0 mg/kg/injection, schedule: Q01DX009 (ip), vehicle: saline.
Where [10] appears, read: dose: 100.0 mg/kg/injection, schedule: Q01DX009 (ip), vehicle: saline.
[11] abbreviates: dose: 100.0 mg/kg/injection, schedule: Q04DX003 (ip), vehicle: Klucel (hydroxypropylcellulose) (HPC).
[12] abbreviates: dose: 100.0 mg/kg/injection, schedule: Q01DX009 (ip), vehicle: saline with Tween-80.
Where [13] appears, read: dose: 200.0 mg/kg/injection, schedule: Q01DX009 (ip), vehicle: saline with Tween-80.
[14] abbreviates: dose: 400.0 mg/kg/injection, schedule: Q01DX009 (ip), vehicle: saline with Tween-80.
[15] abbreviates: dose: 25.0 mg/kg/injection, schedule: Q04DX003 (ip), vehicle: Klucel (hydroxypropylcellulose) (HPC).
Where [16] appears, read: dose: 50.0 mg/kg/injection, schedule: Q04DX003 (ip), vehicle: Klucel (hydroxypropylcellulose) (HPC).
Where [17] appears, read: dose: 50.0 mg/kg/injection, schedule: Q01DX009 (ip), vehicle: Klucel (hydroxypropylcellulose) (HPC).

For `CC1=C(/C=C/C(C)=C/C=C/C(C)=C/C(=O)O)C(C)(C)CCC1`, the T/C (dose: 0.5 mg/kg/injection, schedule: Q01DX009 (ip), vehicle: saline with Tween-80) is 98 % of control; the T/C (dose: 1.0 mg/kg/injection, schedule: Q01DX009 (ip), vehicle: saline with Tween-80) was 90 % of control; the T/C (dose: 8.0 mg/kg/injection, schedule: Q01DX009 (ip), vehicle: saline with Tween-80) was 92 % of control; the T/C (dose: 16.0 mg/kg/injection, schedule: Q01DX009 (ip), vehicle: saline with Tween-80) is 86 % of control and 88 % of control (2×); the T/C (dose: 32.0 mg/kg/injection, schedule: Q01DX009 (ip), vehicle: saline with Tween-80) was 86 % of control and 94 % of control; the T/C (dose: 64.0 mg/kg/injection, schedule: Q01DX009 (ip), vehicle: saline with Tween-80) was 93 % of control.

Take `CCOC(=O)C1=NN(c2ccccc2)C(=O)C1`: the T/C is, setting by setting: under setting [1], 97 % of control; under setting [2], 97 % of control; under setting [3], 97 % of control.

Take `CNC(=S)C(=S)NC`: the T/C under setting [4] is 102 % of control, the T/C under setting [5] is 120 % of control and the T/C under setting [6] is 107 % of control.

As to `Nc1ccc(OC(F)(F)C(F)Cl)cc1` (centres undefined), the T/C under setting [1] was 86 % of control, the T/C under setting [2] was 96 % of control and the T/C under setting [3] is 103 % of control.

As for `OCC1OC(n2cnc3c(Cl)ncnc32)C(O)C1O` (centres undefined), the T/C was 123 % of control under setting [7]; 102 % of control under setting [8]; 108 % of control under setting [9]; 105 % of control under setting [10]; 106 % of control (dose: 200.0 mg/kg/injection, schedule: Q01DX009 (ip), vehicle: saline); 106 % of control (dose: 400.0 mg/kg/injection, schedule: Q01DX009 (ip), vehicle: saline).

For the molecule `Cc1ccc(S(=O)(=O)N(Cc2cccc(CN(S(=O)(=O)c3ccc(C)cc3)S(=O)(=O)c3ccc(C)cc3)c2)S(=O)(=O)c2ccc(C)cc2)cc1`, under setting [11], the T/C is 87 % of control.

For `Nc1ncnc2c1ncn2C1OC(CO)C(O)C1O` (centres undefined), the T/C is, setting by setting: (dose: 18.7 mg/kg/injection, schedule: Q01DX009 (ip), vehicle: saline) 96 % of control; (dose: 32.0 mg/kg/injection, schedule: Q01DX009 (ip), vehicle: Klucel (hydroxypropylcellulose) (HPC)) 99 % of control and 105 % of control; (dose: 37.5 mg/kg/injection, schedule: Q01DX009 (ip), vehicle: saline) 99 % of control; (dose: 64.0 mg/kg/injection, schedule: Q01DX009 (ip), vehicle: Klucel (hydroxypropylcellulose) (HPC)) 98 % of control and 101 % of control; (dose: 75.0 mg/kg/injection, schedule: Q01DX009 (ip), vehicle: saline) 98 % of control; (dose: 128.0 mg/kg/injection, schedule: Q01DX009 (ip), vehicle: Klucel (hydroxypropylcellulose) (HPC)) 99 % of control and 101 % of control. Also, the T/C was 121 % of control (dose: 150.0 mg/kg/injection, schedule: Q01DX009 (ip), vehicle: saline); 97 % of control and 98 % of control (dose: 256.0 mg/kg/injection, schedule: Q01DX009 (ip), vehicle: Klucel (hydroxypropylcellulose) (HPC)); 93 % of control and 101 % of control (dose: 512.0 mg/kg/injection, schedule: Q01DX009 (ip), vehicle: Klucel (hydroxypropylcellulose) (HPC)); 123 % of control (dose: 600.0 mg/kg/injection, schedule: Q01DX009 (ip), vehicle: saline).

`CC(=O)OCC(Br)C(Br)COC(C)=O` (centres undefined): the T/C is, setting by setting: under setting [12], 100 % of control; under setting [13], 97 % of control; under setting [14], 97 % of control.

`NC(=S)N/N=C/c1ccc(OC(=O)COc2ccccc2)cn1`: the T/C runs as follows: under setting [5], 101 % of control and 110 % of control; under setting [6], 94 % of control and 104 % of control and 119 % of control; (dose: 50.0 mg/kg/injection, schedule: Q01DX009 (ip), vehicle: saline with Tween-80) 103 % of control and 106 % of control and 117 % of control; under setting [12], 105 % of control; under setting [13], 105 % of control; under setting [14], 108 % of control.

Consider `C=C1CCC2(C)C(O)CC3(C)C(CCC4C5(C)CCC(OC(C)=O)C(C)(C)C5CCC43C)C2C1C` (centres undefined), for which the T/C (dose: 1.0 mg/kg/injection, schedule: Q01DX009 (ip), vehicle: other) is 107 % of control; the T/C (dose: 2.0 mg/kg/injection, schedule: Q01DX009 (ip), vehicle: other) is 101 % of control; the T/C (dose: 4.0 mg/kg/injection, schedule: Q01DX009 (ip), vehicle: other) is 102 % of control.

Take `CC(C)CN(CC(C)C)c1ccc([N+](=O)[O-])cc1[N+](=O)[O-]`: the T/C is, setting by setting: under setting [4], 105 % of control; under setting [5], 107 % of control; under setting [6], 87 % of control and 114 % of control; under setting [12], 105 % of control; under setting [14], 86 % of control.

As to `COc1ccc(C2=CN(S(=O)(=O)c3ccc(C)cc3)CCc3ccccc32)cc1`, the T/C by setting is: under setting [15], 112 % of control; under setting [16], 110 % of control; under setting [11], 91 % of control and 111 % of control; (dose: 400.0 mg/kg/injection, schedule: Q04DX003 (ip), vehicle: Klucel (hydroxypropylcellulose) (HPC)) 90 % of control.

On to `CC1C=CC(C(N)C(=O)O)O1` (centres undefined), for which the T/C under setting [7] is 97 % of control and the T/C under setting [8] is 92 % of control.

`O=NNc1ccc(Cl)cn1`: the T/C (dose: 1.5 mg/kg/injection, schedule: Q01DX009 (ip), vehicle: water) was 104 % of control; the T/C (dose: 3.0 mg/kg/injection, schedule: Q01DX009 (ip), vehicle: water) is 118 % of control; the T/C (dose: 24.0 mg/kg/injection, schedule: Q01DX009 (ip), vehicle: water) was 161 % of control.

With `c1cc2cc3c(cc2cc1CC1NCCc2cc4c(cc21)OCO4)OCO3` (centres undefined), the T/C was 97 % of control (dose: 25.0 mg/kg/injection, schedule: Q01DX009 (ip), vehicle: Klucel (hydroxypropylcellulose) (HPC)); 89 % of control under setting [17]; 94 % of control under setting [1].

Consider `[Cl][Pt+2][Cl].[NH-]C1CCC1.[NH2-]`, for which the T/C reads like this: (dose: 1.5 mg/kg/injection, schedule: Q01DX009 (ip), vehicle: saline) 176 % of control; (dose: 3.0 mg/kg/injection, schedule: Q01DX009 (ip), vehicle: saline) 162 % of control.

Take `C#CCC1(OC(N)=O)CCCCC1`: the T/C runs as follows: (dose: 6.25 mg/kg/injection, schedule: Q04DX003 (ip), vehicle: Klucel (hydroxypropylcellulose) (HPC)) 99 % of control; under setting [7], 104 % of control; (dose: 12.5 mg/kg/injection, schedule: Q04DX003 (ip), vehicle: Klucel (hydroxypropylcellulose) (HPC)) 97 % of control; under setting [8], 100 % of control; under setting [15], 97 % of control; under setting [9], 89 % of control. Also, the T/C is 98 % of control under setting [16]; 87 % of control under setting [10]; 103 % of control under setting [11]; 95 % of control (dose: 200.0 mg/kg/injection, schedule: Q04DX003 (ip), vehicle: Klucel (hydroxypropylcellulose) (HPC)).

In the case of `Cn1c2nc3ccccc3c-2nc2ccccc21`, the T/C (dose: 1.56 mg/kg/injection, schedule: Q01DX009 (ip), vehicle: water) is 95 % of control; the T/C (dose: 3.13 mg/kg/injection, schedule: Q01DX009 (ip), vehicle: water) was 96 % of control; the T/C (dose: 6.25 mg/kg/injection, schedule: Q01DX009 (ip), vehicle: other) was 105 % of control; the T/C (dose: 6.25 mg/kg/injection, schedule: Q01DX009 (ip), vehicle: water) is 90 % of control; the T/C (dose: 12.5 mg/kg/injection, schedule: Q01DX009 (ip), vehicle: other) is 104 % of control; the T/C (dose: 25.0 mg/kg/injection, schedule: Q01DX009 (ip), vehicle: other) was 97 % of control. The T/C by setting is: under setting [17], 87 % of control; (dose: 50.0 mg/kg/injection, schedule: Q01DX009 (ip), vehicle: other) 92 % of control.

Consider `N#CCc1ccc(Cl)c(Cl)c1`, for which the T/C under setting [4] was 90 % of control, the T/C under setting [5] was 88 % of control and the T/C under setting [6] is 95 % of control.
